Laboratory results taken from PubChem BioAssay AID1963958 (Molecular Pharmacology Branch, DTP, NCI, 2024).
Each block holds one compound with its values, some of them ahead of it.

Tested on: MDA-MB-231 multicell spheroids, viability
Test: Anticancer human tumor MDA-MB-231 cell line growth inhibition [PI3K];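 further: spheroids exposed to agents for seven days before reading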;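 on viability, T/C: percent of vehicle control luminescence with DMSO treated spheroids as 100%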
Settings: for IC50: curve of first compound; for viability, T/C: stronger effect = lower value
Procedure, shortened: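 Tumor cells grown as multi-cell spheroids with HUVEC endothelial cells and MSC fibroblast-like stroma were treated with targeted agents combined with inavolisib, alpelisib, duvelisib or copanlisib. Doses fell in half-log steps from near clinical Cmax, else from 10 microM. Viability was measured.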

[1] = second compound 0.0316 µM, first compound 0.0316 µM
[2] = second compound 0.0316 µM, first compound 0.1 µM
[3] = second compound 0.0316 µM, first compound 0.316 µM
[4] = second compound 0.0316 µM, first compound 1 µM
[5] = second compound 0.0316 µM, first compound 3.16 µM
[6] = second compound 0.0316 µM, first compound 10 µM
[7] = second compound 0.1 µM, first compound 0.0316 µM
[8] = second compound 0.1 µM, first compound 0.1 µM
[9] = second compound 0.1 µM, first compound 0.316 µM
[10] = second compound 0.1 µM, first compound 1 µM
[11] = second compound 0.1 µM, first compound 3.16 µM
[12] = second compound 0.1 µM, first compound 10 µM
[13] = second compound 0.316 µM, first compound 0.0316 µM
[14] = second compound 0.316 µM, first compound 0.1 µM
[15] = second compound 0.316 µM, first compound 0.316 µM
[16] = second compound 0.316 µM, first compound 1 µM
[17] = second compound 0.316 µM, first compound 3.16 µM
[18] = second compound 0.316 µM, first compound 10 µM
[19] = second compound 1 µM, first compound 0.0316 µM
[20] = second compound 1 µM, first compound 0.1 µM
[21] = second compound 1 µM, first compound 0.316 µM
[22] = second compound 1 µM, first compound 1 µM
[23] = second compound 1 µM, first compound 3.16 µM
[24] = second compound 1 µM, first compound 10 µM
[25] = second compound 3.16 µM, first compound 0.0316 µM
[26] = second compound 3.16 µM, first compound 0.1 µM
[27] = second compound 3.16 µM, first compound 0.316 µM
[28] = second compound 3.16 µM, first compound 1 µM
[29] = second compound 3.16 µM, first compound 3.16 µM
[30] = second compound 3.16 µM, first compound 10 µM
[31] = second compound 10 µM, first compound 0.0316 µM
[32] = second compound 10 µM, first compound 0.1 µM
[33] = second compound 10 µM, first compound 0.316 µM
[34] = second compound 10 µM, first compound 1 µM
[35] = second compound 10 µM, first compound 3.16 µM
[36] = second compound 10 µM, first compound 10 µM

SMILES: C#Cc1c(F)ccc2cc(O)cc(-c3ncc4c(N5CC6CCC(C5)N6)nc(OCC56CCCN5CC(F)C6)nc4c3F)c12 (stereo not given) + Cc1nc(NC(=O)N2CCCC2C(N)=O)sc1-c1ccnc(C(C)(C)C(F)(F)F)c1
- IC50 (second compound 0.0316 µM): > 10000 nM
- IC50 (second compound 0.1 µM): 7620 nM
- IC50 (second compound 0.316 µM): 5670 nM
- IC50 (second compound 1 µM): 1700 nM
- IC50 (second compound 3.16 µM): 847 nM
- IC50 (second compound 10 µM): 230 nM
- viability, T/C [1]: 106%
- viability, T/C [2]: 96%
- viability, T/C [3]: 101%
- viability, T/C [4]: 68.3%
- viability, T/C [5]: 75.6%
- viability, T/C [6]: 54.9%
- viability, T/C [7]: 88.8%
- viability, T/C [8]: 87.6%
- viability, T/C [9]: 85.4%
- viability, T/C [10]: 73%
- viability, T/C [11]: 65.5%
- viability, T/C [12]: 45.2%
- viability, T/C [13]: 77.7%
- viability, T/C [14]: 82.8%
- viability, T/C [15]: 69.4%
- viability, T/C [16]: 60.4%
- viability, T/C [17]: 62%
- viability, T/C [18]: 42%
- viability, T/C [19]: 74.1%
- viability, T/C [20]: 69.8%
- viability, T/C [21]: 67.3%
- viability, T/C [22]: 55.2%
- viability, T/C [23]: 43.3%
- viability, T/C [24]: 33.3%
- viability, T/C [25]: 69.6%
- viability, T/C [26]: 65.5%
- viability, T/C [27]: 53.4%
- viability, T/C [28]: 49.6%
- viability, T/C [29]: 42%
- viability, T/C [30]: 28%
- viability, T/C [31]: 64.2%
- viability, T/C [32]: 58.4%
- viability, T/C [33]: 45.3%
- viability, T/C [34]: 36.9%
- viability, T/C [35]: 32%
- viability, T/C [36]: 18.1%

SMILES: C=CC(=O)N1CCN(c2nc(=O)n(-c3c(C)ccnc3C(C)C)c3nc(-c4c(O)cccc4F)c(F)cc23)C(C)C1 (stereo not given) + Cc1nc(NC(=O)N2CCCC2C(N)=O)sc1-c1ccnc(C(C)(C)C(F)(F)F)c1
- IC50 (second compound 0.0316 µM): > 10000 nM
- IC50 (second compound 0.1 µM): > 10000 nM
- IC50 (second compound 0.316 µM): > 10000 nM
- IC50 (second compound 1 µM): > 10000 nM
- IC50 (second compound 3.16 µM): 6060 nM
- IC50 (second compound 10 µM): 3950 nM
- viability, T/C [1]: 97.5%
- viability, T/C [2]: 98.3%
- viability, T/C [3]: 96.4%
- viability, T/C [4]: 103%
- viability, T/C [5]: 120%
- viability, T/C [6]: 102%
- viability, T/C [7]: 86.5%
- viability, T/C [8]: 85.4%
- viability, T/C [9]: 93.2%
- viability, T/C [10]: 108%
- viability, T/C [11]: 109%
- viability, T/C [12]: 88.4%
- viability, T/C [13]: 74.8%
- viability, T/C [14]: 79.1%
- viability, T/C [15]: 79%
- viability, T/C [16]: 82.8%
- viability, T/C [17]: 87.9%
- viability, T/C [18]: 66.9%
- viability, T/C [19]: 63%
- viability, T/C [20]: 66.5%
- viability, T/C [21]: 68.2%
- viability, T/C [22]: 71.1%
- viability, T/C [23]: 62.1%
- viability, T/C [24]: 48.5%
- viability, T/C [25]: 66.3%
- viability, T/C [26]: 66.8%
- viability, T/C [27]: 68%
- viability, T/C [28]: 65.4%
- viability, T/C [29]: 60.1%
- viability, T/C [30]: 42.1%
- viability, T/C [31]: 67.6%
- viability, T/C [32]: 60.3%
- viability, T/C [33]: 60%
- viability, T/C [34]: 58.5%
- viability, T/C [35]: 54.7%
- viability, T/C [36]: 36.7%

SMILES: Cn1nccc1Nc1nccc(-c2ccn(C(CO)c3ccc(Cl)c(F)c3)c(=O)c2)n1 (stereo not given) + Cc1nc(NC(=O)N2CCCC2C(N)=O)sc1-c1ccnc(C(C)(C)C(F)(F)F)c1
- IC50 (second compound 0.0316 µM): 610 nM
- IC50 (second compound 0.1 µM): 423 nM
- IC50 (second compound 0.316 µM): 151 nM
- IC50 (second compound 1 µM): 88.1 nM
- IC50 (second compound 3.16 µM): 57.6 nM
- IC50 (second compound 10 µM): < 31.6 nM
- viability, T/C [1]: 75.6%
- viability, T/C [2]: 65%
- viability, T/C [3]: 56.1%
- viability, T/C [4]: 45.3%
- viability, T/C [5]: 36.5%
- viability, T/C [6]: 26%
- viability, T/C [7]: 66.2%
- viability, T/C [8]: 58.1%
- viability, T/C [9]: 54%
- viability, T/C [10]: 41.6%
- viability, T/C [11]: 35.7%
- viability, T/C [12]: 22.4%
- viability, T/C [13]: 62.2%
- viability, T/C [14]: 49.5%
- viability, T/C [15]: 46.7%
- viability, T/C [16]: 37.6%
- viability, T/C [17]: 29.3%
- viability, T/C [18]: 21.9%
- viability, T/C [19]: 56.6%
- viability, T/C [20]: 47.2%
- viability, T/C [21]: 43.6%
- viability, T/C [22]: 34.6%
- viability, T/C [23]: 25.1%
- viability, T/C [24]: 19.7%
- viability, T/C [25]: 53.8%
- viability, T/C [26]: 47.2%
- viability, T/C [27]: 37.8%
- viability, T/C [28]: 34.3%
- viability, T/C [29]: 24.2%
- viability, T/C [30]: 16.7%
- viability, T/C [31]: 43.2%
- viability, T/C [32]: 37.1%
- viability, T/C [33]: 33%
- viability, T/C [34]: 29.6%
- viability, T/C [35]: 21.9%
- viability, T/C [36]: 10.6%

Second part, led by results:

- IC50 (second compound 0.0316 µM): > 10000 nM
- IC50 (second compound 0.1 µM): > 10000 nM
- IC50 (second compound 0.316 µM): > 10000 nM
- IC50 (second compound 1 µM): > 10000 nM
- IC50 (second compound 3.16 µM): > 10000 nM
- IC50 (second compound 10 µM): > 10000 nM
SMILES: CC(Cn1ccc(-c2ccc(C#N)c(Cl)c2)n1)NC(=O)c1cc(C(C)O)[nH]n1 (stereo not given) + Cc1nc(NC(=O)N2CCCC2C(N)=O)sc1-c1ccnc(C(C)(C)C(F)(F)F)c1
- viability, T/C [1]: 92.9%
- viability, T/C [2]: 88.3%
- viability, T/C [3]: 98.9%
- viability, T/C [4]: 93.5%
- viability, T/C [5]: 86.4%
- viability, T/C [6]: 83.3%
- viability, T/C [7]: 86.8%
- viability, T/C [8]: 78.8%
- viability, T/C [9]: 87%
- viability, T/C [10]: 89.3%
- viability, T/C [11]: 86.2%
- viability, T/C [12]: 74.5%
- viability, T/C [13]: 73.2%
- viability, T/C [14]: 71.6%
- viability, T/C [15]: 77.4%
- viability, T/C [16]: 72.5%
- viability, T/C [17]: 68.2%
- viability, T/C [18]: 64.8%
- viability, T/C [19]: 68.6%
- viability, T/C [20]: 70.9%
- viability, T/C [21]: 67.1%
- viability, T/C [22]: 72.3%
- viability, T/C [23]: 66.6%
- viability, T/C [24]: 59.8%
- viability, T/C [25]: 68.4%
- viability, T/C [26]: 67.3%
- viability, T/C [27]: 68.7%
- viability, T/C [28]: 64.6%
- viability, T/C [29]: 61.9%
- viability, T/C [30]: 56.6%
- viability, T/C [31]: 68.3%
- viability, T/C [32]: 58%
- viability, T/C [33]: 60.3%
- viability, T/C [34]: 64.2%
- viability, T/C [35]: 62.8%
- viability, T/C [36]: 49.8%

- IC50 (second compound 0.0316 µM): 31.6 nM
- IC50 (second compound 0.1 µM): 31.6 nM
- IC50 (second compound 0.316 µM): < 31.6 nM
- IC50 (second compound 1 µM): < 31.6 nM
- IC50 (second compound 3.16 µM): < 31.6 nM
- IC50 (second compound 10 µM): < 31.6 nM
SMILES: CC1(C)CCC(Nc2ncc(C(F)(F)F)c(-c3c[nH]c4c(P(C)(C)=O)c(C#N)ccc34)n2)CN1 (stereo not given) + Cc1nc(NC(=O)N2CCCC2C(N)=O)sc1-c1ccnc(C(C)(C)C(F)(F)F)c1
- viability, T/C [1]: 47.6%
- viability, T/C [2]: 42.8%
- viability, T/C [3]: 47.6%
- viability, T/C [4]: 51.2%
- viability, T/C [5]: 54.6%
- viability, T/C [6]: 4.85%
- viability, T/C [7]: 48.5%
- viability, T/C [8]: 44.1%
- viability, T/C [9]: 45.2%
- viability, T/C [10]: 49.9%
- viability, T/C [11]: 52.5%
- viability, T/C [12]: 5.6%
- viability, T/C [13]: 44.5%
- viability, T/C [14]: 42.7%
- viability, T/C [15]: 44.7%
- viability, T/C [16]: 45.5%
- viability, T/C [17]: 47.5%
- viability, T/C [18]: 3.95%
- viability, T/C [19]: 43.4%
- viability, T/C [20]: 43.8%
- viability, T/C [21]: 43.9%
- viability, T/C [22]: 45.4%
- viability, T/C [23]: 44.8%
- viability, T/C [24]: 3.6%
- viability, T/C [25]: 43.5%
- viability, T/C [26]: 44%
- viability, T/C [27]: 42.5%
- viability, T/C [28]: 42.6%
- viability, T/C [29]: 40.4%
- viability, T/C [30]: 4.49%
- viability, T/C [31]: 41.7%
- viability, T/C [32]: 43.4%
- viability, T/C [33]: 40.5%
- viability, T/C [34]: 40.3%
- viability, T/C [35]: 38.1%
- viability, T/C [36]: 3.35%
